The text below walks through data of patent publication US10975077B2 (Novira Therapeutics, Inc., priority 2016, dated 2021).

The structures appear in SMILES notation.

The term EC50 denotes the concentration giving half of the maximal effect.

One experiment concerns HBV (encapsidated HBV DNA, HepG2.2.15 cells). Kind of experiment: HBV replication inhibition assay, BDNA assay in HepG2.2.15 cells. In kind it is cell-based. Particulars: Activity in BDNA-assay. Summed up: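 HepG2.2.15 cells (stably integrated HBV, 40,000/well) treated with serially diluted compound in 0.5% DMSO for 6 days, medium and compound refreshed at day 3. DNase-treated supernatant lysed with proteinase K; encapsidated HBV DNA quantified by bDNA, percent inhibition versus DMSO controls, EC50 by nonlinear fit.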
Turning to `C[C@@H]1Cc2nn3c(c2CN1C(=O)Nc1ccc(F)c(Cl)c1F)C(=O)N(C)CC(CO)C3` (single isomer, unassigned) [Compound 089_D2, (3R,8R*)—N-(3-chloro-2,4-difluorophenyl)-8-(hydroxymethyl)-3,10-dimethyl-11-oxo-1,3,4,7,8,9,10,11-octahydro-2H-pyrido[4′,3′:3,4]pyrazolo[1,5-a][1,4]diazepine-2-carboxamide], the EC50 was 1 to 100 nM.
For `C[C@@H]1Cc2nn3c(c2CN1C(=O)Nc1ccc(F)c(Cl)c1)C(=O)N(CC(F)F)CC(CO)C3` (single isomer, unassigned) [Compound 092_D2, (3R,8 S*)—N-(3-chloro-4-fluorophenyl)-10-(2,2-difluoroethyl)-8-(hydroxymethyl)-3-methyl-11-oxo-1,3,4,7,8,9,10,11-octahydro-2H-pyrido[4′,3′:3,4]pyrazolo[1,5-a][1,4]diazepine-2-carboxamide], the EC50 fell in the range of 1 to 100 nM.
`C=CC(O)C1CN(C)C(=O)c2c3c(nn2C1)CC(C)N(C(=O)Nc1ccc(F)c(C#N)c1)C3` (single isomer, unassigned) [Compound 123_D2, (3R,8S*)—N-(3-cyano-4-fluorophenyl)-8-((S*)-1-hydroxyallyl)-3,10-dimethyl-11-oxo-1,3,4,7,8,9,10,11-octahydro-2H-pyrido[4′,3′:3,4]pyrazolo[1,5-a][1,4]diazepine-2-carboxamide]: the EC50 is 100 to 500 nM.
As to `CN1CC(CNCC(F)F)Cn2nc3c(c2C1=O)CN(C(=O)Nc1cc(Br)c(F)cc1F)CC3` (single isomer, unassigned) [Compound 125_E1, (R*)—N-(5-bromo-2,4-difluorophenyl)-8-(((2,2-difluoroethyl)amino)methyl)-10-methyl-11-oxo-1,3,4,7,8,9,10,11-octahydro-2H-pyrido[4′,3′:3,4]pyrazolo[1,5-a][1,4]diazepine-2-carboxamide], the EC50 lay in the range of 100 to 500 nM.
As for `CCC(O)C1CN(C)C(=O)c2c3c(nn2C1)CCN(C(=O)Nc1ccc(F)c(C#N)c1)C3` (single isomer, unassigned) [Compound 097_E2, (S*)—N-(3-cyano-4-fluorophenyl)-8-((R*)-1-hydroxypropyl)-10-methyl-11-oxo-1,3,4,7,8,9,10,11-octahydro-2H-pyrido[4′,3′: 3,4]pyrazolo[1,5-a][1,4]diazepine-2-carboxamide], the EC50 lay in the range of 100 to 500 nM.

The same experiment, now with this note: Hepatitis B virus, HepG2.2.15, Activity in BDNA-assay.
On to `Cc1cc(NC(=O)N2CCc3nn4c(c3C2)C(=O)N(C)CC(F)C4)ccc1F` (stereo not drawn) [Compound 010, 8-fluoro-N-(4-fluoro-3-methylphenyl)-10-methyl-11-oxo-1,3,4,7,8,9,10,11-octahydro-2H-pyrido[4′,3′:3,4]pyrazolo[1,5-a][1,4]diazepine-2-carboxamide], for which the EC50 was 1 to 100 nM.
Same read-out and setting: the figure for `C[C@@H]1Cc2nn3c(c2CN1C(=O)Nc1ccc(F)c(C#N)c1)C(=O)N(C)CC(F)C3` (single isomer, unassigned) [Compound 137_D1, (3R,8R*)—N-(3-cyano-4-fluorophenyl)-8-fluoro-3,10-dimethyl-11-oxo-1,3,4,7,8,9,10,11-octahydro-2H-pyrido[4′,3′:3,4]pyrazolo[1,5-a][1,4]diazepine-2-carboxamide_D1] is 1 to 100 nM; for `COC(=O)C1Cn2nc3c(c2C(=O)N1C)CN(C(=O)Nc1ccc(F)c(Cl)c1)CC3` (stereo not drawn) [Compound 043, methyl 2-((3-chloro-4-fluorophenyl)carbamoyl)-9-methyl-10-oxo-1,2,3,4,7,8,9,10-octahydropyrido[4′,3′:3,4]pyrazolo[1,5-a]pyrazine-8-carboxylate] it is 100 to 500 nM.
Take `C[C@@H]1Cc2nn3c(c2CN1C(=O)Nc1ccc(F)c(C#N)c1)C(=O)N(C)CC(F)(F)C3` [Compound 136, (R)—N-(3-cyano-4-fluorophenyl)-8,8-difluoro-3,10-dimethyl-11-oxo-1,3,4,7,8,9,10,11-octahydro-2H-pyrido[4′,3′:3,4]pyrazolo[1,5-a][1,4]diazepine-2-carboxamide]: the EC50 is 1 to 100 nM.
With `CN1CC(F)Cn2nc3c(c2C1=O)CN(C(=O)Nc1ccnc(Br)c1F)CC3` (stereo not drawn) [Compound 008, N-(2-bromo-3-fluoropyridin-4-yl)-8-fluoro-10-methyl-11-oxo-1,3,4,7,8,9,10,11-octahydro-2H-pyrido[4′,3′:3,4]pyrazolo[1,5-a][1,4]diazepine-2-carboxamide], the 50% effective concentration (EC50) lay within 1 to 100 nM.
For `CCOC1CN(C)C(=O)c2c3c(nn2C1)CCN(C(=O)Nc1ccc(F)c(Cl)c1)C3` (stereo not drawn) [Compound 017, N-(3-chloro-4-fluorophenyl)-8-ethoxy-10-methyl-11-oxo-1,3,4,7,8,9,10,11-octahydro-2H-pyrido[4′,3′:3,4]pyrazolo[1,5-a][1,4]diazepine-2-carboxamide], the EC50 fell in the range of 1 to 100 nM.
`CC(O)C1CN(C)C(=O)c2c3c(nn2C1)CCN(C(=O)Nc1ccc(F)c(Cl)c1)C3` (stereo not drawn) [Compound 034, N-(3-chloro-4-fluorophenyl)-8-(1-hydroxyethyl)-10-methyl-11-oxo-1,3,4,7,8,9,10,11-octahydro-2H-pyrido[4′,3′:3,4]pyrazolo[1,5-a][1,4]diazepine-2-carboxamide]: the 50% effective concentration (EC50) lay within 100 to 500 nM.
For the molecule `C[C@@H]1Cc2nn3c(c2CN1C(=O)Nc1ccc(F)c(C(F)(F)F)c1)C(=O)N(C)CC(C)(C)C3` [Compound 140, (R)-N-(4-Fluoro-3-(trifluoromethyl)phenyl)-3,8,8,10-tetramethyl-11-oxo-1,3,4,7,8,9,10,11-octahydro-2H-pyrido[4′,3′:3,4]pyrazolo[1,5-a][1,4]diazepine-2-carboxamide], the EC50 fell in the range of 1 to 100 nM.
Turning to `CC1CN(C)C(=O)c2c3c(nn2C1)C[C@@H](C)N(C(=O)Nc1ccc(F)c(Cl)c1)C3` (single isomer, unassigned) [Compound 080_D1, (3R,8S*)—N-(3-chloro-4-fluorophenyl)-3,8,10-trimethyl-11-oxo-3,4,8,9,10,11-hexahydro-1H-pyrido[4′,3′,3,4]pyrazolo[1,5-a][1,4] diazepine-2 (7H)-carboxamide], the EC50 fell in the range of 1 to 100 nM.
As for `CN1CC(CNCC(F)F)Cn2nc3c(c2C1=O)CN(C(=O)Nc1ccc(F)c(C(F)(F)F)c1)CC3` (stereo not drawn) [Compound 119, 8-(((2,2-difluoroethyl)amino)methyl)-N-(4-fluoro-3-(trifluoromethyl)phenyl)-10-methyl-11-oxo-1,3,4,7,8,9,10,11-octahydro-2H-pyrido[4′,3′:3,4]pyrazolo[1,5-a][1,4] diazepine-2-carboxamide], the EC50 was in the range of 1 to 100 nM.
`CN1CC(CN2CCC(F)(F)C2)Cn2nc3c(c2C1=O)CN(C(=O)Nc1ccc(F)c(C#N)c1)CC3` (stereo not drawn) [Compound 067, N-(3-cyano-4-fluorophenyl)-8-((3,3-difluoropyrrolidin-1-yl)methyl)-10-methyl-11-oxo-1,3,4,7,8,9,10,11-octahydro-2H-pyrido[4′,3′:3,4]pyrazolo[1,5-a][1,4]diazepine-2-carboxamide]: the EC50 lay in the range of 100 to 500 nM.
As to `C[C@@H]1Cc2nn3c(c2CN1C(=O)Nc1ccc(F)c(Cl)c1)C(=O)N(CC(F)F)CC(CO)C3` (single isomer, unassigned) [Compound 092_D1, (3R,8R*)—N-(3-chloro-4-fluorophenyl)-10-(2,2-difluoroethyl)-8-(hydroxymethyl)-3-methyl-11-oxo-1,3,4,7,8,9,10,11-octahydro-2H-pyrido[4′,3′:3,4]pyrazolo[1,5-a][1,4]diazepine-2-carboxamide], the EC50 is 1 to 100 nM.
Turning to `Cn1c(C(=O)O)cn2nc3c(c2c1=O)CN(C(=O)Nc1ccc(F)c(Cl)c1)CC3` [Compound 042, 2-((3-chloro-4-fluorophenyl)carbamoyl)-9-methyl-10-oxo-1,2,3,4,9,10-hexahydropyrido[4′,3′:3,4]pyrazolo[1,5-a]pyrazine-8-carboxylic acid], the EC50 was more than 1000 nM.
Still for that read-out and setting: the figure for `C[C@@H]1Cc2nn3c(c2CN1C(=O)Nc1ccc(F)c(Cl)c1)C(=O)N(CC(F)F)CCC3` [Compound 072, (3R)—N-(3-chloro-4-fluorophenyl)-10-(2,2-difluoroethyl)-3-methyl-11-oxo-1,3,4,7,8,9,10,11-octahydro-2H-pyrido[4′,3′:3,4]pyrazolo[1,5-a][1,4]diazepine-2-carboxamide] is 1 to 100 nM; for `CC1CCn2nc3c(c2C(=O)N1C)CN(C(=O)Nc1ccc(F)c(Cl)c1)CC3` (stereo not drawn) [Compound 039, N-(3-chloro-4-fluorophenyl)-9,10-dimethyl-11-oxo-1,3,4,7,8,9,10,11-octahydro-2H-pyrido[4′,3′:3,4]pyrazolo[1,5-a][1,4]diazepine-2-carboxamide] it is 1 to 100 nM.
In the case of `CN1CC(C(O)CC(F)F)Cn2nc3c(c2C1=O)CN(C(=O)Nc1ccc(F)c(Cl)c1)CC3` (stereo not drawn) [Compound 116, N-(3-chloro-4-fluoro-phenyl)-8-(3,3-difluoro-1-hydroxy-propyl)-10-methyl-1-oxo-1,3,4,7,8,9-hexahydropyrido[2,3]pyrazolo[2,4-b][1,4]diazepine-2-carboxamide], the EC50 lay in the range of 1 to 100 nM.
Turning to `CN1CC(F)Cn2nc3c(c2C1=O)CN(C(=O)Nc1ccc(F)c(Br)c1)CC3` (stereo not drawn) [Compound 007, N-(3-bromo-4-fluorophenyl)-8-fluoro-10-methyl-11-oxo-1,3,4,7,8,9,10,11-octahydro-2H-pyrido[4′,3′:3,4]pyrazolo[1,5-a][1,4]diazepine-2-carboxamide], the EC50 fell in the range of 1 to 100 nM.
On the same count and under the same terms, the figure for `CSC1CN(C)C(=O)c2c3c(nn2C1)CCN(C(=O)Nc1ccc(F)c(Cl)c1)C3` (stereo not drawn) [Compound 025, N-(3-chloro-4-fluorophenyl)-10-methyl-8-(methylthio)-11-oxo-1,3,4,7,8,9,10,11-octahydro-2H-pyrido[4′,3′:3,4]pyrazolo[1,5-a][1,4]diazepine-2-carboxamide] is 1 to 100 nM; for `CN1CC(F)Cn2nc3c(c2C1=O)CN(C(=O)Nc1ccc(F)c(C#N)c1)CC3` (stereo not drawn) [Compound 009, N-(3-cyano-4-fluorophenyl)-8-fluoro-10-methyl-11-oxo-1,3,4,7,8,9,10,11-octahydro-2H-pyrido[4′,3′:3,4]pyrazolo[1,5-a][1,4]diazepine-2-carboxamide] it is 1 to 100 nM.
